In US20260085034A1, “N-(BENZHYDRYL)CYCLOALKYLCARBOXAMIDE DERIVATIVES AS INHIBITORS OF GLYCOGEN SYNTHASE 1 (GYS1) AND METHODS OF USE THEREOF” (Maze Therapeutics, Inc., priority 2022, published 2026):

These compounds were tested against T1, recombinant hGYS1/GN1 protein (Homo sapiens, UniProt P13807) (assay: GYS1 coupled enzyme assay (PK/LDH)). Settings: geometric mean of at least 2 assay runs; NADH absorbance at 340 nm.
T1 sequence (P13807 1-737): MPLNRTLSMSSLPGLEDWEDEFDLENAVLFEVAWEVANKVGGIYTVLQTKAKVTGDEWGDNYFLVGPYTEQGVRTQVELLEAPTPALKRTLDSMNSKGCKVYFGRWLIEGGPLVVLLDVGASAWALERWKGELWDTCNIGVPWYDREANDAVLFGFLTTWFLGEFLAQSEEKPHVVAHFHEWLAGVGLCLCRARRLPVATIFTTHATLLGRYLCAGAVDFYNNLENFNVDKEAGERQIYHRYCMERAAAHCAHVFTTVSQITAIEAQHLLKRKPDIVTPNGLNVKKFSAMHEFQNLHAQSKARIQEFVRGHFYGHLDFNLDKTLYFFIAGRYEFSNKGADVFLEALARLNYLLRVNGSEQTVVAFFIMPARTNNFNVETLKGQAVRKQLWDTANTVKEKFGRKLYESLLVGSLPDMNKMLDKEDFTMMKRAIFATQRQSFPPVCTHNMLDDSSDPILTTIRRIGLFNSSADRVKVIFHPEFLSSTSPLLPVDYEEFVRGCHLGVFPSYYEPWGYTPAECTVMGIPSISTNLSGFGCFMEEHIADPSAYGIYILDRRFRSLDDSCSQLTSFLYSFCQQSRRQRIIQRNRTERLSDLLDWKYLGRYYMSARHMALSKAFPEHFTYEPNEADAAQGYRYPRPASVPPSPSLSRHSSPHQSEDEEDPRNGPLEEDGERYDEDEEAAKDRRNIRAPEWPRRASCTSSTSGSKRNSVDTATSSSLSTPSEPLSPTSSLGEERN
T1 sequence (P46976 1-350 partner): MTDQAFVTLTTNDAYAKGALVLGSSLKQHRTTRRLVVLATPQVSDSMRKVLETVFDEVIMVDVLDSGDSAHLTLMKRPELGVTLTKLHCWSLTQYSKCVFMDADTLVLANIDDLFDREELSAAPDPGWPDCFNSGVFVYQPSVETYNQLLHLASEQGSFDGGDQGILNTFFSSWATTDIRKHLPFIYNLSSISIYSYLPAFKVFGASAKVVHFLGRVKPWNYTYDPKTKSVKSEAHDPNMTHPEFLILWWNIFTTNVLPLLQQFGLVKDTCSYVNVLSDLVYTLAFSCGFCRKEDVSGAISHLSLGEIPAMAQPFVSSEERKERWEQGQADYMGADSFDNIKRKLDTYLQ
Type: biochemical
Description: The GYS1 coupled enzyme assay is a kinetic biochemical assay that indirectly quantifies the rate of glycogen synthesis by coupling the conversion of GYS1 substrate UDP-glucose into UDP with downstream enzymatic reactions. UDP is released from UDP-glucose as glucose monomers are linked into the growing glycogen strand by GYS1. The coupled assay then proceeds with pyruvate kinase utilizing UDP and phospho(enol)pyruvate (PEP) to form pyruvate. Lactate dehydrogenase then converts pyruvate and NADH into lactate and NAD+. Oxidation of NADH to NAD+ can be measured continuously with a plate reader by quantifying the decrease in NADH absorbance at 340 nm over time.
Compounds that inhibit the hGYS1 enzyme and, subsequently, the downstream conversion of NADH to NAD+, were tested using assay ready plates (black, clear bottom 384 well plates) in a final DMSO reaction volume of 2.5% DMSO. The Assay Buffer contained 50 mM Tris pH 7.5, 2 mM MgCl2, and 100 mM KCl. Fresh stocks of BSA at a final concentration of 0.02% and TCEP at 1 mM were added before splitting buffer into hGYS1 buffer and substrate buffer. To the hGYS1 buffer, rabbit liver glycogen was added at a final concentration of 0.2% glycogen. Glucose-6-Phosphate was added at 1 mM, recombinant hGYS1/GN1 protein was added at 50 nM to the substrate buffer, phosphoenolpyruvate (PEP) was added at 2 mM, UDP-Glucose was added at 0.8 mM, NADH) was added at 0.6 mM, and Pyruvate Kinase/Lactate Dehydrogenase was added at 20 units/mL. The reaction was initiated by mixing hGYS1 buffer and substrate buffer at a 1:1 ratio. Both buffers were plated using a liquid dispensing device with hGYS1 buffer plated first followed by the substrate buffer. Plates were spun briefly to eliminate air bubbles and are immediately read in continuous mode at an absorbance of 340 nm, for 10 time points in one-minute increments, for a total of 10 minutes. The slope from these 10 time points was normalized to the positive and negative control wells. The duplicate % inhibition values are then averaged and fit to a Hill equation for dose response according to the Levenberg-Marquardt algorithm with the Hill equation maximum set to 100 and the minimum set to 0.
The results are shown in Table 3 below, which reports the IC50 of each compound. Unless otherwise specified, IC50 values are reported as the geometric mean of at least 2 assay runs on separate days. Each run represents the average of a technical replicate, where each compound was assayed twice in the same plate. As shown in the table below, the compounds of the present invention are potent inhibitors of human GYS1.

SMILES	IC50
O=C(N[C@@H](c1ccccc1)c1ccc(C2CC2)cc1)C1CC1 [compound 41, (S)-N-((4-cyclopropylphenyl)(phenyl)methyl)cyclopropanecarboxamide]	2060 nM
COC(=O)CCNC(=O)[C@H]1CCC[C@H]1C(=O)N[C@H](c1ccc(C(C)C)cc1)c1ccccc1C [compound 20, methyl 3-((1S,2R)-2-(((R)-(4-isopropylphenyl)(o-tolyl)methyl)carbamoyl)cyclopentane-1-carboxamido)propanoate]	2980 nM
CC(C)c1ccc([C@@H](NC(=O)C2CC2)c2ccccc2NC(=O)[C@@H]2CCN2)cc1 [compound 49, (S)-N-(2-((R)-cyclopropanecarboxamido(4-isopropylphenyl)methyl)phenyl)azetidine-2-carboxamide]	1790 nM
CC(C)c1ccc([C@@H](NC(=O)C2CC2)c2ccccc2NC(=O)[C@H]2CCN2)cc1 [compound 50, (R)-N-(2-((R)-cyclopropanecarboxamido(4-isopropylphenyl)methyl)phenyl)azetidine-2-carboxamide]	1790 nM
CC(C)c1ccc([C@@H](NC(=O)C2CC2)c2ccccc2NC(=O)C2CN(CC(F)(F)F)C2)cc1 [compound 23, (R)-N-(2-(cyclopropanecarboxamido(4-isopropylphenyl)methyl)phenyl)-1-(2,2,2-trifluoroethyl)azetidine-3-carboxamide]	1210 nM
CC(C)c1ccc([C@@H](NC(=O)C2CC2)c2ccccc2)nc1 [compound 45, (S)-N-((5-isopropylpyridin-2-yl)(phenyl)methyl)cyclopropanecarboxamide]	2490 nM
CC(C)c1ccc([C@@H](NC(=O)[C@@H]2CCC[C@@H]2NC(N)=O)c2ccccc2)cc1 [compound 38, (1R,2S)-N-((S)-(4-isopropylphenyl)(phenyl)methyl)-2-ureidocyclopentane-1-carboxamide]	1920 nM
CC(=O)N[C@@H](CC(N)=O)C(=O)N[C@H]1CCC[C@H]1C(=O)N[C@@H](c1ccccc1)c1ccc(C(C)C)cc1 [compound 28, (S)-2-acetamido-N^1-((1S,2R)-2-(((S)-(4-isopropylphenyl)(phenyl)methyl)carbamoyl)cyclopentyl)succinamide]	2970 nM
CC(=O)Nc1cccc([C@H](NC(=O)C2CC2)c2ccc(C(C)C)cc2)c1 [compound 6, (R)-N-((3-acetamidophenyl)(4-isopropylphenyl)methyl)cyclopropanecarboxamide]	737 nM
Cc1ccccc1[C@H](NC(=O)[C@@H]1CCC[C@@H]1C#N)c1ccc(C(C)C)cc1 [compound 7, (1R,2S)-2-cyano-N-((R)-(4-isopropylphenyl)(o-tolyl)methyl)cyclopentane-1-carboxamide]	1140 nM
COCCN1CC(C(=O)Nc2ccccc2[C@H](NC(=O)C2CC2)c2ccc(C(C)C)cc2)C1 [compound 24, (R)-N-(2-(cyclopropanecarboxamido(4-isopropylphenyl)methyl)phenyl)-1-(2-methoxyethyl)azetidine-3-carboxamide]	1200 nM
Cc1ccccc1[C@H](NC(=O)[C@@H]1CCC[C@@H]1C(N)=O)c1ccc(C(C)C)cc1 [compound 30, (1R,2S)-N^1-((R)-(4-isopropylphenyl)(o-tolyl)methyl)cyclopentane-1,2-dicarboxamide]	1390 nM
Cc1n[nH]cc1[C@H](NC(=O)C1CC1)c1ccc(C(C)C)cc1 (single isomer, unassigned) [compound 43]	2440 nM
NC(=O)Nc1ccccc1[C@H](NC(=O)C1CC1)c1ccc(C2CC2)cc1 (single isomer, unassigned) [compound 17]	2220 nM

The remaining lines, values ahead:

IC50	SMILES
2420 nM	CC(=O)N[C@H]1CCC[C@H]1C(=O)N[C@@H](c1ccccc1)c1ccc(C(C)C)cc1 [compound 55, (1R,2S)-2-acetamido-N-((S)-(4-isopropylphenyl)(phenyl)methyl)cyclopentane-1-carboxamide]
295 nM	CC(C)c1ccc([C@@H](NC(=O)C2CC2)c2ccccc2NC2NC(=O)N(C)C2=O)cc1 (stereo partly drawn) [compound 8, N-((1R)-(4-isopropylphenyl)(2-((1-methyl-2,5-dioxoimidazolidin-4-yl)amino)phenyl)methyl)cyclopropanecarboxamide]
1220 nM	CC(C)c1ccc([C@@H](NC(=O)C2CC2)c2ccccc2Nc2ncco2)cc1 (single isomer, unassigned) [compound 31]
1330 nM	O=C(N[C@@H](c1ccccc1)c1ccc(C2CCC2)cc1)C1CC1 [compound 40, (S)-N-((4-cyclobutylphenyl)(phenyl)methyl)cyclopropanecarboxamide]
1740 nM	CNC(=O)[C@H]1CCC[C@H]1C(=O)N[C@H](c1ccc(C(C)C)cc1)c1ccccc1C [compound 16, (1R,2S)-N^1-((R)-(4-isopropylphenyl)(o-tolyl)methyl)-N^2-methylcyclopentane-1,2-dicarboxamide]
1530 nM	CC(=O)NCC(=O)N[C@H]1CCC[C@H]1C(=O)N[C@@H](c1ccccc1)c1ccc(C(C)C)cc1 [compound 21, (1R,2S)-2-(2-acetamidoacetamido)-N-((S)-(4-isopropylphenyl)(phenyl)methyl)cyclopentane-1-carboxamide]
1640 nM	CC(C)c1ccc([C@@H](NC(=O)[C@H]2C[C@@H]2F)c2ccccc2NC(=O)C2CCN(C)CC2)cc1 [compound 12, N-(2-((R)-((1R,2S)-2-fluorocyclopropane-1-carboxamido)(4-isopropylphenyl)methyl)phenyl)-1-methylpiperidine-4-carboxamide]
778 nM	CC(C)c1ccc([C@@H](NC(=O)[C@H]2CCC(F)C2)c2ccccc2)cc1 (stereo partly drawn) [compound 34, (1S)-3-fluoro-N-((S)-(4-isopropylphenyl)(phenyl)methyl)cyclopentane-1-carboxamide]
1420 nM	COc1ccccc1[C@H](NC(=O)C1CC1)c1ccc(C(C)C)cn1 (single isomer, unassigned) [compound 33]
1480 nM	CC(=O)N1CC[C@H]1C(=O)Nc1ccccc1[C@H](NC(=O)C1CC1)c1ccc(C(C)C)cc1 [compound 42, (S)-1-acetyl-N-(2-((R)-cyclopropanecarboxamido(4-isopropylphenyl)methyl)phenyl)azetidine-2-carboxamide]
1810 nM	Cc1ccccc1[C@H](NC(=O)C1CC1)c1ccc(C(C)C)cn1 (single isomer, unassigned) [compound 47]
1140 nM	CC(C)c1ccc([C@@H](NC(=O)C2CC2)c2ccccc2NC(=O)C2CN(CC3CC3)C2)cc1 [compound 25, (R)-N-(2-(cyclopropanecarboxamido(4-isopropylphenyl)methyl)phenyl)-1-(cyclopropylmethyl)azetidine-3-carboxamide]
2000 nM	CC(C)c1ccc([C@@H](NC(=O)C2CC2)c2cccc3c2NC(=O)C3)cc1 (single isomer, unassigned) [compound 32]
